Experimental data taken from patent publication US20230190947A1, “Hemoglobin-Targeted Drug Delivery For The Treatment of Cancer” (Therapure Biopharma Inc., priority 2016, published 2023).

Key:
[1] = set-up: species or system mice; details: mouse, in vivo
Experimental: (§1) Study design: Fifty (50) tumor-bearing mice were randomly divided into five groups with ten (10) mice per group. Animals (10 mice per group) were treated with Hb-FUdR at 6, 32, and 161 mg Hb/kg (0.15, 0.74, and 3.7 mg FUdR/kg) twice weekly via intravenous injection (tail vein) at 5 mL/kg. Control untreated animals were treated with PBS at 5 mL/kg. Control FUdR treated animals were treated with 3.7 mg FUdR/kg. Study endpoint: The study was terminated 47 days post tumor inoculation. All remaining mice in each group were sacrificed at this time point. All animals in the PBS treated group and approximately 50% of animals in other treated groups died before the study endpoint. Therefore, survival time between groups was considered one of the criteria to assess the efficacy of the test agents. Primary tumors were excised and weighted at necropsy for subsequent analysis.
[…]. […] Other symptoms of related toxicity were absent by gross observation.

human colon cancer = assay: Human colon cancer model: mice orthotopically implanted with GFP-transfected colon cancer tumor fragments; assay type: in vivo
Experimental: A study testing Hb-FUdR in mice orthotopically implanted with tumor fragments derived from colon cancer cells (transfected with green fluorescence protein for in-life tumor visualization was conducted as follows:
as §1
The anti-tumor efficacy of Hb-FUdR against the implanted human colon cancer was evaluated by comparing the primary tumor sizes measured twenty-one days after treatment initiation, and the differences in survival time between the Hb-FUdR treated and PBS control groups.

HCC = details: SHARP trial; vs. 7.9 months; cited from earlier work
[2] = Hb 0 mg/kg, FUdR 3.7 mg/kg (free drug), 9 mice evaluated

Row | SMILES | Toxicity [1] | No. of mice with L.N. met. (human colon cancer; [2]) | No. of mice with liver met. (human colon cancer; [2]) | Mean survival time (human colon cancer; Hb 0 mg/kg, FUdR 3.7 mg/kg (free drug), study terminated 47 days post tumor inoculation) [days] | Average tumor volume (human colon cancer; Hb 0 mg/kg, FUdR 3.7 mg/kg (free drug), twenty-one days after treatment initiation) [mm^3] | Survival time of the treated mice (human colon cancer; summary statement) | Overall survival (HCC) [months]
1 | O=c1[nH]c(=O)n([C@H]2C[C@H](O)[C@@H](CO)O2)cc1F [FUdR, floxuridine] | without obvious toxicity | 6 | 4 | 43.9 | 254.58 ± 196.74 | significantly prolonged survival time | 
2 | CNC(=O)c1cc(Oc2ccc(NC(=O)Nc3ccc(Cl)c(C(F)(F)F)c3)cc2)ccn1 [Sorafenib] |  |  |  |  |  |  | 10.7
